This is an account of results in publication PMC3933693, “Novel Inhibitors of Mitochondrial sn-Glycerol 3-phosphate Dehydrogenase” (PLoS ONE, 2014).

Usually IC50 stands for the concentration at which inhibition is half-maximal.

Assay [1] deals with ubiquinone-binding site of complex I (site IQ). Put plainly: Site-specific H2O2 production from site IQ in skeletal muscle mitochondria.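 For all read-outs here: H2O2 from superoxide detected by Amplex UltraRed fluorescence with added superoxide dismutase and horseradish peroxidase, endpoint read 30–40 min after substrate addition.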 It is filed as biochemical, rat. The conditions noted are these: 5 mM succinate; for IQ (% change from DMSO): primary screen, ∼2.5 µM, average of duplicates.
Assay [2] deals with T1, mGPDH (Rattus norvegicus, UniProt P35571).
T1 construct: Activity of mGPDH in frozen-thawed skeletal muscle mitochondria was measured; from tissue; host or cells: skeletal muscle mitochondria
T1 sequence (P35571 43-727): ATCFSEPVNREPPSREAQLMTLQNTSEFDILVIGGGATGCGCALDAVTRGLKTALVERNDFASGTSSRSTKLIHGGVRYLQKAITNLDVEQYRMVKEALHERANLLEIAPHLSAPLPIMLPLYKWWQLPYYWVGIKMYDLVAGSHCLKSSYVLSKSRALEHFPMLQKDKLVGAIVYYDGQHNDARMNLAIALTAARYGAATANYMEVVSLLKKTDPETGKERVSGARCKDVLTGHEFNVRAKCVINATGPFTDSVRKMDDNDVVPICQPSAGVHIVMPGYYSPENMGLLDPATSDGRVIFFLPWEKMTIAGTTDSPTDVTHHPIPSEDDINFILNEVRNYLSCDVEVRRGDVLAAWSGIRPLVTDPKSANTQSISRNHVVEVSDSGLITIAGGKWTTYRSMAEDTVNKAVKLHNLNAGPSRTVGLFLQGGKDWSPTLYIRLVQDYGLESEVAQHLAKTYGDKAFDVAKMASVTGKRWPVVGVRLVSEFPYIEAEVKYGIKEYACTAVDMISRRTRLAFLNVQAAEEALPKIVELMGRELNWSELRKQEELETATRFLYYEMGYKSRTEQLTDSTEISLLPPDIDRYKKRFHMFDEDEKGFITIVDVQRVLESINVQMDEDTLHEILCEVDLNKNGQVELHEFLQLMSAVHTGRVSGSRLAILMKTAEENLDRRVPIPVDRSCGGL
Kind of assay: Superoxide/H2O2 production by mGPDH in isolated skeletal muscle mitochondria (Amplex UltraRed). It is filed as biochemical. The conditions noted are these: for IC50: Fig. 4 structure/activity microplate assay, 0.08–80 µM, estimated, means of two replicates, read-out: mGPDH H2O2 production IC50; for inhibition at 80 µM: read-out: mGPDH H2O2 production (% change at 80 μM); for mGPDH (% change from DMSO): primary screen, ∼2.5 µM, average of duplicates, 16.7 mM glycerol phosphate, no added calcium.

For assay [3], the system named is skeletal muscle mitochondria. Kind of assay: Mitochondrial membrane potential (ΔΨm, TMRM) powered by glycerol phosphate. It is filed as biochemical, rat. The conditions noted are these: 80 μM; 16.7 mM glycerol phosphate, 4 µM rotenone, nigericin.
Protocol: (§3) Mitochondrial membrane potential (ΔΨm) was estimated fluorimetrically as described previously [33] on the Varian fluorimeter, except the potentiometric dye TMRM was used in quench-mode in place of safranine O [34]. […] The effect of putative small-molecule inhibitors was normalized as the % change in fluorescence between vehicle treatment and complete depolarization by the uncoupler carbonyl cyanide-4-(trifluoromethoxy)phenylhydrazone (FCCP, 2 µM) added at the end of each run. When indicated, the K^+/H^+ exchanger nigericin (80 ng ⋅ ml^−1) was added to collapse the pH gradient across the mitochondrial inner membrane (ΔpH) and maximize ΔΨm.
(§4) All assays were performed with stirring at 37°C.
(§5) Additionally, four microplate assays for ΔΨm were run in parallel to the H2O2 assays. These assays were as described under “Measurement of mitochondrial H2O2 production and membrane potential” except that each substrate condition was assayed in a separate microplate. […] Plates were incubated in the dark at room temperature for 30–40 min (H2O2) or 10–15 min (ΔΨm) after the addition of substrate, and endpoint fluorescence was measured on the Victor plate reader. […] Endpoints for the ΔΨm assays were determined in pilot experiments as the times for TMRM accumulation to reach a steady state. At room temperature, this was typically ∼ 5 min and remained stable for at least 30 min. Endpoint fluorescence values were normalized as described in the previous section with wells containing FCCP serving as positive controls for the ΔΨm assays.
For assay [4], the system named is skeletal muscle mitochondria. Kind of assay: Mitochondrial membrane potential (ΔΨm, TMRM) powered by glutamate plus malate. It is filed as biochemical, rat. The conditions noted are these: for ΔΨm with Glu + Mal + Nig (% change at 80 μM) / ΔΨm with Glu + Mal (% change at 80 μM): 5 mM glutamate, 5 mM malate; for ΔΨm with Glu + Mal + Nig (% change at 80 μM): with nigericin; for ΔΨm with Glu + Mal (% change at 80 μM): without nigericin; for ΔΨm (% change from DMSO): primary screen, ∼2.5 µM, average of duplicates, glutamate and malate.
Protocol: as §3, §4, §5

The test system of assay [5] is flavin mononucleotide site of complex I (site IF) plus matrix NAD-linked dehydrogenases (site IF/DH). Kind of assay: Site-specific H2O2 production from site IF/DH in skeletal muscle mitochondria. The conditions noted are these: primary screen, ∼2.5 µM, average of duplicates. It is filed as biochemical, rat. Here is the method:
(§1) Superoxide was measured as H2O2 after dismutation by endogenous or exogenous superoxide dismutase. Rates of total superoxide/H2O2 production were measured fluorimetrically using Amplex UltraRed in the presence of exogenous superoxide dismutase and horseradish peroxidase in a Varian Cary Eclipse fluorimeter as previously described. Rates of production from specific sites were determined as previously described using the following eight conditions: flavin mononucleotide site of complex I (site IF) plus matrix NAD-linked dehydrogenases (collectively "site IF/DH") with 5 mM glutamate, 5 mM malate, and 4 µM rotenone; ubiquinone-binding site of complex I (site IQ) with either 0.5 or 5 mM succinate; flavin site of complex II (site IIF) with either 15 µM palmitoylcarnitine, 2.5 µM antimycin A, and 2 µM myxothiazol or 0.5 mM succinate, 4 µM rotenone, 2.5 µM antimycin A, and 2 µM myxothiazol, [31]; mGPDH with 1.7 mM glycerol phosphate, 4 µM rotenone, 2.5 µM antimycin A, 2 µM myxothiazol, 1 mM malonate, and 250 nM free calcium; outer ubiquinone-binding site of complex III (site IIIQo) with either 0.5 or 5 mM succinate, 4 µM rotenone and 2.5 µM antimycin A [32]. Candidate small-molecule inhibitors were added prior to the start of measurements and H2O2 calibration curves were performed in the presence of tested compounds.
(§2) 3,200 compounds were tested initially at 2.5 µM (0.025% DMSO final) in duplicate on different plates against a panel of five distinct assays of site-specific superoxide/H2O2 production as described in the previous section with minor changes. […] Endpoint fluorescence was measured on a Perkin Elmer Victor V3 fluorescent plate reader. The fluorescence intensity of each well was normalized as % change from the average of eight DMSO controls on the same plate. Duplicate wells of each of four modulators of mitochondrial metabolism known to inhibit specific sites of superoxide/H2O2 production were included on each plate as positive controls and the resulting fluorescence levels set as −100% change from DMSO controls. Known inhibitors included 20 mM aspartate (for site IF/DH), 1 µM FCCP (for site IQ), 10 mM malonate (for site IIF), and 2 µM myxothiazol (for site IIIQo). The background fluorescence of the FCCP wells in the site IQ assay was used to normalize mGPDH plates run in parallel. To minimize position-dependent effects across each assay plate, Tukey’s two-way median polish was applied to fluorescence values after initial normalization, [36]. Tukey’s polish is an iterative subtraction of the median row and column values from each well’s given row or column. The procedure is repeated until sequential medians for each row and column are zero and positional gradients in fluorescence are eliminated.

Assay [6] deals with T2, outer ubiquinone-binding site of complex III (site IIIQo) (Rattus norvegicus, UniProt P00159+P20788).
T2 construct: from tissue; host or cells: skeletal muscle mitochondria
Kind of assay: Site-specific H2O2 production from site IIIQo in skeletal muscle mitochondria. Format: biochemical. The conditions noted are these: primary screen, ∼2.5 µM, average of duplicates; 5 mM succinate. How it is done:
as §1, §2

In assay [7] the target is T3, flavin site of complex II (site IIF) (Rattus norvegicus, UniProt Q920L2).
T3 construct: from tissue; host or cells: skeletal muscle mitochondria
T3 sequence (Q920L2 35-656): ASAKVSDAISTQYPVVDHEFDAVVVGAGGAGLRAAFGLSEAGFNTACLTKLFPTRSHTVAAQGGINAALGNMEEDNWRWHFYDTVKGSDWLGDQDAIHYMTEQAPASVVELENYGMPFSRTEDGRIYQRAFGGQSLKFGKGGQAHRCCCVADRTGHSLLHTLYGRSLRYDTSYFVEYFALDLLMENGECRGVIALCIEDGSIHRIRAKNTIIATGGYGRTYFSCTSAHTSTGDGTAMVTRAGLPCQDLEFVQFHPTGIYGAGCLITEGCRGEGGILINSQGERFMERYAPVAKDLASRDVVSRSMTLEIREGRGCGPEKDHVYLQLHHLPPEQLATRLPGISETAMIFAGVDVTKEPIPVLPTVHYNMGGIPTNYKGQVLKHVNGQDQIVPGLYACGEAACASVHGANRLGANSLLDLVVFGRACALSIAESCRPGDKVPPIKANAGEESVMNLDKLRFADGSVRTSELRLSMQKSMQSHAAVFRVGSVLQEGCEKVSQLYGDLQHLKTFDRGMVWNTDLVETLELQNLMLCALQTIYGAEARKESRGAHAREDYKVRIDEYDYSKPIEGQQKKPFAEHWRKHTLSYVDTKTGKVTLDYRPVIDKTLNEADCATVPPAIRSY
T3 sequence (P21913 31-282 partner): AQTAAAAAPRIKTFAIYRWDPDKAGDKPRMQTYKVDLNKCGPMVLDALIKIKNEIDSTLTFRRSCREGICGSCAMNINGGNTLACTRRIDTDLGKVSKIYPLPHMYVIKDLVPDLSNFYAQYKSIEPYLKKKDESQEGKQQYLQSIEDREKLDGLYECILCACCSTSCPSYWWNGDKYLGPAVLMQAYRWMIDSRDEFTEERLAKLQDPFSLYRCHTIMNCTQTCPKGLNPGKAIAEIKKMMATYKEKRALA
T3 sequence (Q641Z9 30-169 partner limits assumed): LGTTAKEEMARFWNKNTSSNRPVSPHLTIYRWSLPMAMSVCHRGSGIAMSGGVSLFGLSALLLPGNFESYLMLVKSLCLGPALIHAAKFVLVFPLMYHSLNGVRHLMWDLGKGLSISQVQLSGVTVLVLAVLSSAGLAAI
T3 sequence (Q6PCT8 57-159 partner): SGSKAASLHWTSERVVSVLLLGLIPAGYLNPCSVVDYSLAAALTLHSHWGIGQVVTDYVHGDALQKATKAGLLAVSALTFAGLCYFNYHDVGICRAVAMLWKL
Put plainly: Site-specific H2O2 production from site IIF in skeletal muscle mitochondria. It is filed as biochemical. The conditions noted are these: primary screen, ∼2.5 µM, average of duplicates; palmitoylcarnitine. How it is done:
as §1, §2

Each structure is given as a SMILES string.

For `O=C(Nc1ccc(-c2nc3ccccc3[nH]2)cc1)c1ccco1` [iGP-13], the “IQ H2O2 production with 5 mM Suc (% change at 80 μM)” value in assay [1] is listed as -82%. For the same compound, in assay [2], the IC50 is 80 µM and the inhibition at 80 µM is 37%. Besides, in assay [3], the “ΔΨm with GP + Nig (% change at 80 μM)” value was 13%. In addition, in assay [4], the “ΔΨm with Glu + Mal + Nig (% change at 80 μM)” value was 10% and the “ΔΨm with Glu + Mal (% change at 80 μM)” value amounted to 23%.

On to `Cc1ccc2[nH]c(-c3ccc(NC(=O)CCC(=O)O)cc3)nc2c1` [iGP-4], for which, in assay [1], the “IQ H2O2 production with 5 mM Suc (% change at 80 μM)” value was -20%. In assay [2], the IC50 was 5 µM and the inhibition at 80 µM is 69%. Moreover, in assay [3], the “ΔΨm with GP + Nig (% change at 80 μM)” value was -35%. For the same compound, in assay [4], the “ΔΨm with Glu + Mal + Nig (% change at 80 μM)” value was found to be 11% and the “ΔΨm with Glu + Mal (% change at 80 μM)” value came to 49%.

In the case of `O=C(O)CCC(=O)Nc1cccc(-c2nc3ccccc3[nH]2)c1` [iGP-8], in assay [1], the “IQ H2O2 production with 5 mM Suc (% change at 80 μM)” value is recorded as -14%. Besides, in assay [2], the IC50 is 50 µM and the inhibition at 80 µM was found to be 44%. Further, the “lowering of potency versus mGPDH ROS production relative to iGP-1” value in assay [2] (ortho- to para- positioning) was “more than 5 fold”. In addition, in assay [3], the “ΔΨm with GP + Nig (% change at 80 μM)” value is on record as -7%. In assay [4], the “ΔΨm with Glu + Mal + Nig (% change at 80 μM)” value turned out to be 1% and the “ΔΨm with Glu + Mal (% change at 80 μM)” value came to 3%.

Consider `c1ccc2[nH]c(-c3ccc(-c4nc5ccccc5[nH]4)cc3)nc2c1` [iGP-10], for which the “IQ H2O2 production with 5 mM Suc (% change at 80 μM)” value in assay [1] is listed as -77%. Moreover, the inhibition at 80 µM in assay [2] came to 0%. For the same compound, in assay [3], the “ΔΨm with GP + Nig (% change at 80 μM)” value was -78%. Further, in assay [4], the “ΔΨm with Glu + Mal + Nig (% change at 80 μM)” value is reported as -78% and the “ΔΨm with Glu + Mal (% change at 80 μM)” value was -58%.

Take `CCOc1ccc(C(=O)Nc2ccc(-c3nc4ccccc4[nH]3)cc2)cc1` [iGP-15]: the “IQ H2O2 production with 5 mM Suc (% change at 80 μM)” value in assay [1] is reported as -15%. In assay [2], the inhibition at 80 µM is -11%. For the same compound, the “ΔΨm with GP + Nig (% change at 80 μM)” value in assay [3] is on record as -25%. In assay [4], the “ΔΨm with Glu + Mal + Nig (% change at 80 μM)” value is reported as -42% and the “ΔΨm with Glu + Mal (% change at 80 μM)” value is reported as 10%.

Turning to `O=C(O)CCC(=O)Nc1ccc(-c2nc3cc(NC(=O)CCC(=O)O)ccc3[nH]2)cc1` [iGP-7], in assay [1], the “IQ H2O2 production with 5 mM Suc (% change at 80 μM)” value is 3%. Besides, the inhibition at 80 µM in assay [2] was 21%. Besides, the “ΔΨm with GP + Nig (% change at 80 μM)” value in assay [3] stood at 4%. In assay [4], the “ΔΨm with Glu + Mal + Nig (% change at 80 μM)” value is given as 2% and the “ΔΨm with Glu + Mal (% change at 80 μM)” value came out at 25%.

On to `CCCCSc1nnc2c(n1)[nH]c1ccc(C)cc12` [compound 5225633], for which, in assay [5], the “IF/DH (% change from DMSO)” value stood at 16.4%. In addition, the “IIIQo (% change from DMSO)” value in assay [6] is listed as -13.3%. In assay [1], the “IQ (% change from DMSO)” value is reported as -2.4%. In addition, the “IIF (% change from DMSO)” value in assay [7] was -0.9%. For the same compound, the “mGPDH (% change from DMSO)” value in assay [2] is on record as -10.0%. Besides, the “ΔΨm (% change from DMSO)” value in assay [4] is reported as 1.1%.

Turning to `Cc1ccc(NC(=O)c2ccc(C(C)(C)C)cc2)cc1` [compound 5210384], the “IF/DH (% change from DMSO)” value in assay [5] turned out to be 6.3%. The “IIIQo (% change from DMSO)” value in assay [6] stood at 11.8%. Moreover, the “IQ (% change from DMSO)” value in assay [1] turned out to be 1.4%. Moreover, the “IIF (% change from DMSO)” value in assay [7] is -0.156%. Moreover, the “mGPDH (% change from DMSO)” value in assay [2] is listed as -11.4%. Further, in assay [4], the “ΔΨm (% change from DMSO)” value is -1.1%.

As for `Cn1c(/C=C/c2ccc(Cl)cc2)nc2ccccc21` [compound 5663561], the “IF/DH (% change from DMSO)” value in assay [5] is -9.1%. The “IIIQo (% change from DMSO)” value in assay [6] is on record as -4.7%. Further, in assay [1], the “IQ (% change from DMSO)” value is on record as -3.9%. The “IIF (% change from DMSO)” value in assay [7] is -11.9%. The “mGPDH (% change from DMSO)” value in assay [2] is -12.9%. The “ΔΨm (% change from DMSO)” value in assay [4] is given as 0.0494%.
